According to publication PMC12720774, “Detergents alter the stability and lipid binding properties of the CD1d immunoreceptor” (Protein Science : A Publication of the Protein Society, 2025):
Several values for one entry are separate records, joined by “and”; a condition that tells them apart may be missing. Equal entries are not always repeated. Entries after “also recorded” stand apart in the source; their conditions may differ. Structures can show the parent of a compound that is named as a salt. Where two headings read alike, the source gives them in different places.

Experiments:
[1] = molecular target: T1, AF647‐labeled hCD1d (Homo sapiens, UniProt P15813); assay: Microscale thermophoresis (MST) binding assay
T1 construct: TEV protease cleavage site ENLYFQS (C); BirA biotinylation site (C); His7 (C); made in house; host or cells: TurboCHO cells (GenScript)
T1 sequence (P15813 whole entry, looked up): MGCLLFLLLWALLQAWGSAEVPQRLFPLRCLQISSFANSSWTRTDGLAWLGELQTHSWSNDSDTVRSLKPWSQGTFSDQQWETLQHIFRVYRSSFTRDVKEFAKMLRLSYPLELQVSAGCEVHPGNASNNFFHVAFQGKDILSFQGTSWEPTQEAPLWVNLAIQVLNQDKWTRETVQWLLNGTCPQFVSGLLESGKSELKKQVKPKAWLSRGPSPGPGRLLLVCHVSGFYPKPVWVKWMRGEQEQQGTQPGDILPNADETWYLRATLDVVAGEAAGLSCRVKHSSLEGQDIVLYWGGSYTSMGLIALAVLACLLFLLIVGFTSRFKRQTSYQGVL
In short: (§1)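 hCD1d was NHS-labeled with AF647 (~75% labeling) and held at 100 nM against rising detergent or 18:1 LPC in PBS pH 7.4. Samples were preincubated at 37°C overnight (~12 h) and read at 25°C with 20 s IR-on time. Data are mean ± SD, n = 3.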

[2] = molecular target: T2, AF647‐labeled hCD1d (Homo sapiens, UniProt P15813+P61769); assay: Microscale thermophoresis (MST) binding assay
T2 construct: TEV protease cleavage site ENLYFQS (C); BirA biotinylation site (C); His7 (C); made in house; host or cells: TurboCHO cells (GenScript)
T2 sequence (P61769+P15813 fused): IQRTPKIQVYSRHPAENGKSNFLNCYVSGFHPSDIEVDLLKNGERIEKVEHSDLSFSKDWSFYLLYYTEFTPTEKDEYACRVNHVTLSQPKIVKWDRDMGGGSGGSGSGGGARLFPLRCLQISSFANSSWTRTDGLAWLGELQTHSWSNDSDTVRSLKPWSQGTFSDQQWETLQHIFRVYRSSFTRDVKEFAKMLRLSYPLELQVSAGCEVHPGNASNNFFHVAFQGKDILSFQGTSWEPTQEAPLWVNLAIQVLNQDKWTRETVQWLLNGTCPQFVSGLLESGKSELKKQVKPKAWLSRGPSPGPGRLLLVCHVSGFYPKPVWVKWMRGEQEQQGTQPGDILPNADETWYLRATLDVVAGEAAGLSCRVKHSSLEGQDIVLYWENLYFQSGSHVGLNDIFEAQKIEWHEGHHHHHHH
In short: as §1

[3] = approximate, cited from earlier work
[4] = molecular target: T3, recombinant human CD1d ectodomain/β2m complex (hCD1d) (Homo sapiens, UniProt P15813); assay: Intrinsic tryptophan fluorescence (ITF) binding assay
T3 construct: TEV protease cleavage site ENLYFQS (C); BirA biotinylation site (C); His7 (C); made in house; host or cells: TurboCHO cells (GenScript)
T3 sequence (P15813 whole entry, looked up, the tested form may be a part, one chain of several): as the sequence (P15813 whole entry, looked up) above
Experimental: (§2) For ITF assays, the concentration of hCD1d was kept constant, and intrinsic Trp fluorescence (excitation at 285 nm, emission at 335 nm) was measured as a function of increasing detergent concentration (Fossum et al., [2023]) (Figure S2). The change in relative fluorescence intensity (F − F 0/F 0) provides an indication of binding. […] This was due to limited detergent solubility and decreased hCD1d stability in the presence of a large excess of detergent (see below). […] SDS was the exception, for which Trp fluorescence of hCD1d decreased with added detergent. This could indicate a unique conformational change or destabilization of the protein.
(§3) ITF spectra were recorded from 300 to 500 nm using a Horiba FL3‐21 Fluorometer with the excitation wavelength of 285 nm and excitation/emission slits of 6.2 nm. Fluorescence spectra of 50 to 100 nM hCD1d were acquired in the absence and presence of detergents in 1X PBS pH 7.4 at 25°C. Prior to data acquisition, hCD1d and detergent or lipid samples were incubated at 37°C overnight (~12 h) to simulate in vitro and in vivo loading conditions. […] For 18:1 LPC experiments, fluorescence spectra of 100 nM hCD1d were acquired in the absence and presence of 18:1 LPC in 1X PBS pH 7.4 at 25°C. […] For all ITF experiments, the change in fluorescence signal (F − F 0/F 0) was determined at 335 nm. Three replicates were performed, and data are presented as the mean ± standard deviation (n = 3). K D values were fitted with non‐linear regression in GraphPad Prism v10.1.

[5] = molecular target: T4, recombinant human CD1d ectodomain/β2m complex (hCD1d) (Homo sapiens, UniProt P15813+P61769); assay: as above
T4 construct: TEV protease cleavage site ENLYFQS (C); BirA biotinylation site (C); His7 (C); made in house; host or cells: TurboCHO cells (GenScript)
T4 sequence (P61769+P15813 fused): as the sequence (P61769+P15813 fused) above
Experimental: as §2, §3

[6] = K D (MST), detergent with 100 nM AF647‐labeled hCD1d, 25°C, apparent
[7] = MST - Kd (uM) average, Figure 5B, detergent binding to hCD1d
[8] = 0.001 M detergent, 100 nM AF647‐hCD1d
[9] = weight/volume, ref Anatrace catalogue
[10] = ITF - Kd (uM) average, Figure 5A, detergent binding to hCD1d
[11] = 0.001 M detergent, 100 nM hCD1d
[12] = Figure 5B, detergent binding to hCD1d, read-out: MST - Kd (uM) average
[13] = detergent with 100 nM AF647‐labeled hCD1d, 25°C, apparent, read-out: K D (MST)
[14] = detergent with 100 nM hCD1d, 25°C, 1X PBS pH 7.4, apparent, read-out: K D (ITF)
[15] = K D (ITF), detergent with 100 nM hCD1d, 25°C, 1X PBS pH 7.4, apparent

SMILES	Kd [1, 6] [µM]	Fnorm (rep 1-3) ([2]; 3.05176e-8 M detergent)	Fnorm (rep 1-3) ([2]; 6.10352e-8 M detergent)	Fnorm (rep 1-3) ([2]; 1.2207e-7 M detergent)	Fnorm (rep 1-3) ([2]; 2.44141e-7 M detergent)	Fnorm (rep 1-3) ([2]; 4.88281e-7 M detergent)	Fnorm (rep 1-3) ([2]; 9.76563e-7 M detergent)	Fnorm (rep 1-3) ([2]; 1.95313e-6 M detergent)	Fnorm (rep 1-3) ([2]; 3.90625e-6 M detergent)	Fnorm (rep 1-3) ([2]; 7.8125e-6 M detergent)	Fnorm (rep 1-3) ([2]; 1.5625e-5 M detergent)	Fnorm (rep 1-3) ([2]; 3.125e-5 M detergent)	Fnorm (rep 1-3) ([2]; 6.25e-5 M detergent)	Fnorm (rep 1-3) ([2]; 0.000125 M detergent)	Fnorm (rep 1-3) ([2]; 0.00025 M detergent)	Fnorm (rep 1-3) ([2]; 0.0005 M detergent)	Fnorm (rep 1-3) [2, 8]	CMC ([3]; ref Anatrace catalogue)	CMC [3, 9] [%]	F-F0/F0 (rep 1-3) ([5]; 3.0518e-8 M detergent)	further results
C[C@H](CCC(=O)NCCC[N+](C)(C)CCCS(=O)(=O)[O-])[C@H]1CC[C@H]2[C@@H]3[C@H](O)C[C@@H]4C[C@H](O)CC[C@]4(C)[C@H]3C[C@H](O)[C@]12C [CHAPS, 3‐((3‐cholamidopropyl) dimethylammonio)‐1‐propanesulfonate]	< 200	790.173 ‰ and 791.465 ‰ and 791.791 ‰	791.241 ‰ and 791.286 ‰ and 792.264 ‰	790.851 ‰ and 791.968 ‰ and 791.334 ‰	791.909 ‰ and 789.682 ‰ and 791.374 ‰	790.852 ‰ and 792.443 ‰ and 789.72 ‰	790.963 ‰ and 791.166 ‰ and 789.816 ‰	790.601 ‰ and 790.682 ‰ and 790.374 ‰	791.182 ‰ and 790.338 ‰ and 790.7 ‰	792.893 ‰ and 791.581 ‰ and 790.149 ‰	792.783 ‰ and 794.481 ‰ and 793.14 ‰	797.777 ‰ and 796.648 ‰ and 796.885 ‰	802.833 ‰ and 802.212 ‰ and 800.436 ‰	807.041 ‰ and 807.203 ‰ and 808.474 ‰	810.973 ‰ and 810.93 ‰ and 810.716 ‰	814.652 ‰ and 812.289 ‰ and 815.372 ‰	815.189 ‰ and 817.537 ‰ and 819.368 ‰	8000 µM	0.49	0	Kd [1, 7]: 90.4 µM; Kd [4, 10]: 269 µM; binding to hCD1d by ITF (in words) [5]: observable binding; F-F0/F0 (rep 1-3) [5, 11]: 0.1904 and 0.2276 and 0.116; Kd ([5]; read-out: K D (ITF), detergent with 100 nM hCD1d, 25°C, 1X PBS pH 7.4, apparent): < 400 µM
CCCCCCCCO[C@@H]1O[C@H](CO)[C@@H](O)[C@H](O)[C@H]1O [ODG, n‐octyl‐β‐D‐glucopyranoside]	–	–	–	–	–	–	842.328 ‰ and 845.864 ‰ and 848.262 ‰	843.26 ‰ and 846.856 ‰ and 850.006 ‰	843.026 ‰ and 843.822 ‰ and 848.605 ‰	843.431 ‰ and 845.217 ‰ and 850.155 ‰	843.398 ‰ and 846.496 ‰ and 848.167 ‰	843.251 ‰ and 846.684 ‰ and 848.174 ‰	844.533 ‰ and 847.002 ‰ and 847.612 ‰	844.648 ‰ and 847.89 ‰ and 849.866 ‰	846.571 ‰ and 844.204 ‰ and 849.145 ‰	846.14 ‰ and 848.026 ‰ and 848.57 ‰	845.727 ‰ and 847.773 ‰ and 849.553 ‰	18,000 μM	0.53	–	Kd [1, 12]: 6580 µM; Kd [1, 13]: 6580 ± 186 µM; Fnorm (rep 1-3) ([2]; 0.002 M detergent): 847.311 ‰ and 851.671 ‰ and 850.904 ‰; Fnorm (rep 1-3) ([2]; 0.004 M detergent): 852.082 ‰ and 853.968 ‰ and 856.97 ‰; Fnorm (rep 1-3) ([2]; 0.008 M detergent): 864.475 ‰ and 866.313 ‰ and 870.655 ‰; Fnorm (rep 1-3) ([2]; 0.032 M detergent): 877.078 ‰ and 878.262 ‰ and 882.232 ‰; Kd [4, 14]: > 10000 µM; binding to hCD1d by ITF (in words) [5]: No significant binding; also recorded: minimal concentration‐dependent fluorescence changes; F-F0/F0 (rep 1-3) ([5]; Concentration (M) 0.000977): 0
CCCCCCCCCCCCCCCC[N+](C)(C)C [CTAB, hexadecyltrimethylammonium bromide]	10.9 ± 1.2	–	–	–	–	812.075 ‰ and 810.216 ‰ and 807.19 ‰	814.18 ‰ and 810.332 ‰ and 807.136 ‰	814.445 ‰ and 813.166 ‰ and 810.178 ‰	815.986 ‰ and 818.175 ‰ and 815.532 ‰	824.731 ‰ and 823.149 ‰ and 822.329 ‰	835 ‰ and 828.362 ‰ and 831.779 ‰	849.376 ‰ and 847.531 ‰ and 847.477 ‰	858.509 ‰ and 854.12 ‰ and 851.197 ‰	844.143 ‰ and 841.907 ‰ and 839.82 ‰	844.455 ‰ and 843.492 ‰ and 841.952 ‰	845.737 ‰ and 843.294 ‰ and 845.557 ‰	845.54 ‰ and 843.477 ‰ and 843.19 ‰	–	–	0	Kd [1, 7]: 10.9 µM; CMC ([3]; ref Sigma Aldrich catalogue): 920 µM; CMC ([3]; weight/volume, ref Sigma Aldrich catalogue): 0.033%; Kd [4, 10]: 41.5 µM; Kd [4, 15]: 41.5 ± 6.5 µM; F-F0/F0 (rep 1-3) ([5]; 3.125e-5 M detergent): 0.613 and 0.517 and 0.672; F-F0/F0 (rep 1-3) ([5]; 6.25e-5 M detergent): 0.966 and 1.08 and 1.22; F-F0/F0 (rep 1-3) ([5]; 0.000125 M detergent): 1.45 and 1.3 and 1.29; F-F0/F0 (rep 1-3) ([5]; 0.00025 M detergent): 1.44 and 1.52 and 1.46; F-F0/F0 (rep 1-3) ([5]; 0.0005 M detergent): 1.55 and 1.65 and 1.44; F-F0/F0 (rep 1-3) [5, 11]: 1.83 and 1.56 and 1.71
CCCCCCCCCCCCOS(=O)(=O)O [SDS, sodium dodecyl sulfate]	> 10000	794.561 ‰ and 796.538 ‰ and 787.226 ‰	793.573 ‰ and 796.65 ‰ and 788.808 ‰	795.629 ‰ and 795.536 ‰ and 789.052 ‰	792.166 ‰ and 793.398 ‰ and 784.145 ‰	790.042 ‰ and 793.566 ‰ and 789.803 ‰	792.907 ‰ and 794.378 ‰ and 788.273 ‰	792.77 ‰ and 792.711 ‰ and 788.545 ‰	794.169 ‰ and 793.199 ‰ and 789.062 ‰	793.805 ‰ and 798.209 ‰ and 788.93 ‰	795.098 ‰ and 796.977 ‰ and 790.788 ‰	796.19 ‰ and 799.152 ‰ and 792.387 ‰	800.38 ‰ and 802.553 ‰ and 795.217 ‰	801.158 ‰ and 800.337 ‰ and 800.706 ‰	801.719 ‰ and 804.302 ‰ and 803.561 ‰	816.347 ‰ and 820.909 ‰ and 814.082 ‰	825.168 ‰ and 825.899 ‰ and 822.956 ‰	1990 µM	0.057	0	Kd ([1]; K D, detergent class summary, approximate, collectively from ITF and MST): 10 to 500 µM; binding to hCD1d by MST (in words) [2]: observable binding; Kd [4, 10]: 35.5 µM; Kd [4, 15]: 35.5 ± 22.6 µM
CCCCCCCCCCCC[N+](C)(C)[O-] [LDAO, lauryldimethylamine‐N‐oxide]	–	814.692 ‰ and 814.467 ‰ and 814.489 ‰	817.057 ‰ and 815.567 ‰ and 813.955 ‰	815.153 ‰ and 815.733 ‰ and 813.219 ‰	820.838 ‰ and 814.573 ‰ and 816.312 ‰	815.87 ‰ and 817.501 ‰ and 814.61 ‰	819.746 ‰ and 816.532 ‰ and 815.008 ‰	821.408 ‰ and 818.645 ‰ and 816.968 ‰	814.412 ‰ and 819.336 ‰ and 814.062 ‰	818.471 ‰ and 817.826 ‰ and 814.305 ‰	818.754 ‰ and 820.576 ‰ and 816.619 ‰	825.871 ‰ and 823.407 ‰ and 821.261 ‰	827.8 ‰ and 827.022 ‰ and 819.019 ‰	840.896 ‰ and 830.059 ‰ and 833.855 ‰	853.04 ‰ and 842.052 ‰ and 840.306 ‰	856.938 ‰ and 859.889 ‰ and 860.509 ‰	853.851 ‰ and 856.381 ‰ and 852.289 ‰	1000 µM	0.023	0	Kd [1, 12]: 157 µM; Kd [1, 13]: 157 ± 58.6 µM; Kd [4, 14]: > 10000 µM; binding to hCD1d by ITF (in words) [5]: observable binding; F-F0/F0 (rep 1-3) ([5]; 1.2207e-7 M detergent): 0.07548 and 0.05543 and 0.06384; F-F0/F0 (rep 1-3) ([5]; 4.8828e-7 M detergent): 0.06847 and 0.06205 and 0.06021; F-F0/F0 (rep 1-3) ([5]; 0.00025 M detergent): 0.1026 and 0.1076 and 0.1826; F-F0/F0 (rep 1-3) [5, 11]: 0.4171 and 0.3604 and 0.4782
